Assay results from patent US10336792B2, “Antimicrobial peptide dendrimers” (priority 2014, dated 2019).
≈ marks a conversion by molar mass, not a printed value. Positions of bridges follow the written chain, without caps; N, C: chain ends. Non-standard residues stand in square brackets, D forms with d. Residues, ends and D or L forms follow the SMILES beside them. Groups on a side chain read outwards from the residue. Chains are numbered I, II in the order given. Dab = NCC[C@H](N)C(=O)O; Dap = NC[C@H](N)C(=O)O

System: Pseudomonas aeruginosa (strain PA01)
Assay: microbe, parasite or virus in culture
Assay type: cell-based
Settings: strain
Protocol: Antimicrobial activity was assayed against Bacillus subtilis (strain BR151), Escherichia coli (strain DH5α) and Pseudomonas aeruginosa (strain PA01). Microdilution broth method was used to determine the minimal inhibitory concentration (MIC). A colony of bacteria was grown in LB-medium overnight at 37° C. The concentration was quantified by measuring absorbance at 600 nm and diluted to OD600=0.1 (1×10^8 CFU/mL). The samples were prepared as stock solutions of 1 mg mL^−1 in H2O and diluted serially by ⅔ in nutrient LB in a 96-well microtiterplate (Cornstar, polypropylene, untreated). The sample solutions (50 μL) were mixed with the diluted bacterial suspension with an OD600 nm of 0.001 (50 μL). […] The plates were incubated at 37° C. until satisfactory growth (18-24 h). For each test, two columns of the plate were kept for sterility control (SC, broth only) and growth control (GC, broth with bacterial inoculums, no antibiotics). 10 μL of a solution of MTT (0.1% in H2O) was added to each well. The minimal inhibitory concentration (MIC) was defined as the lowest concentration of the antimicrobial substance (peptide dendrimer) that inhibited visible growth of the tested bacteria (yellow) with the unaided eye. For microbiological study the linear peptide LysTyrLysLysAlaLeuLysLysLeuAlaLysLeuLeu (SEQ ID No. 1) was used as reference.
All peptides were tested for their activity against P. aeruginosa PAO1 in a broth dilution assay (Wiegand, I. et al., 2008, Nat. Protoc., 3, 163-75; Clinical and Laboratory Standards Institute document M7-A7 7th Edition) to determine the MIC (minimal inhibitory concentration) values. The stock solutions of the peptide dendrimers were diluted serially by ⅔ in nutrient LB in 96-well microtiter plates. Bacteria were grown in nutrient LB overnight at 37° C. After dilution the bacteria were added to the peptides and incubated overnight (18-24 h) at 37° C. […] The position of the amino acids between the branching units seems to be optimal if the hydrophobic amino acid is the first counting from C-terminus and the charged one is on the second position. Introducing Ala as additional hydrophobic amino acid reduces activity (MSt-120). […] Also assembling charged or hydrophobic sections between the branching units leads to loss of activity whereas altering L-amino acids to D-amino acids maintains activity leading to the hypothesis that the mechanism of action should not be receptor mediated.

SMILES | MIC P. aeruginosa PAO1 [µg/mL]
CC(C)C[C@H](NC(=O)[C@H](CCCCN)NC(=O)[C@H](CC(C)C)NC(=O)[C@H](CCCCNC(=O)[C@H](CC(C)C)NC(=O)[C@H](CCCCN)NC(=O)[C@H](CC(C)C)NC(=O)[C@H](CCCCNC(=O)[C@H](CC(C)C)NC(=O)[C@H](CCCCN)NC(=O)[C@@H](N)CC(C)C)NC(=O)[C@H](CC(C)C)NC(=O)[C@H](CCCCN)NC(=O)[C@@H](N)CC(C)C)NC(=O)[C@H](CC(C)C)NC(=O)[C@H](CCCCN)NC(=O)[C@H](CC(C)C)NC(=O)[C@H](CCCCNC(=O)[C@H](CC(C)C)NC(=O)[C@H](CCCCN)NC(=O)[C@@H](N)CC(C)C)NC(=O)[C@H](CC(C)C)NC(=O)[C@H](CCCCN)NC(=O)[C@@H](N)CC(C)C)C(N)=O [MIS-04, (LKL)4(KLKL)2(KLKL)] (I: H-LKLK([Leu-Lys-Leu])LKLKLKL-NH2 / II: H-LKLK([Leu-Lys-Leu])LKL; amide I:8-II:C) | 2 (≈ 0.694 µM)
CC(C)C[C@H](NC(=O)[C@H](CCCCN)NC(=O)[C@H](CC(C)C)NC(=O)[C@H](CCCCNC(=O)[C@H](CC(C)C)NC(=O)[C@H](CCCCN)NC(=O)[C@H](CC(C)C)NC(=O)[C@H](CCCCNC(=O)[C@H](CC(C)C)NC(=O)[C@H](CCCCN)NC(=O)[C@H](CC(C)C)NC(=O)[C@H](CCCCNC(=O)[C@H](CC(C)C)NC(=O)[C@H](CCCCN)NC(=O)[C@@H](N)CC(C)C)NC(=O)[C@H](CC(C)C)NC(=O)[C@H](CCCCN)NC(=O)[C@@H](N)CC(C)C)NC(=O)[C@H](CC(C)C)NC(=O)[C@H](CCCCN)NC(=O)[C@H](CC(C)C)NC(=O)[C@H](CCCCNC(=O)[C@H](CC(C)C)NC(=O)[C@H](CCCCN)NC(=O)[C@@H](N)CC(C)C)NC(=O)[C@H](CC(C)C)NC(=O)[C@H](CCCCN)NC(=O)[C@@H](N)CC(C)C)NC(=O)[C@H](CC(C)C)NC(=O)[C@H](CCCCN)NC(=O)[C@H](CC(C)C)NC(=O)[C@H](CCCCNC(=O)[C@H](CC(C)C)NC(=O)[C@H](CCCCN)NC(=O)[C@H](CC(C)C)NC(=O)[C@H](CCCCNC(=O)[C@H](CC(C)C)NC(=O)[C@H](CCCCN)NC(=O)[C@@H](N)CC(C)C)NC(=O)[C@H](CC(C)C)NC(=O)[C@H](CCCCN)NC(=O)[C@@H](N)CC(C)C)NC(=O)[C@H](CC(C)C)NC(=O)[C@H](CCCCN)NC(=O)[C@H](CC(C)C)NC(=O)[C@H](CCCCNC(=O)[C@H](CC(C)C)NC(=O)[C@H](CCCCN)NC(=O)[C@@H](N)CC(C)C)NC(=O)[C@H](CC(C)C)NC(=O)[C@H](CCCCN)NC(=O)[C@@H](N)CC(C)C)C(N)=O [MIS-08, (LKL)8(KLKL)4(KLKL)2(KLKL)] (I: H-LKLK([Leu-Lys-Leu])LKLKLKLKLKL-NH2 / II: H-LKLK([Leu-Lys-Leu])LKLKLKL / III: H-LKLK([Leu-Lys-Leu])LKL / IV: H-LKLK([Leu-Lys-Leu])LKL; amide I:8-IV:C, I:12-II:C, II:8-III:C) | 4 (≈ 0.642 µM)
CC(C)C[C@H](NC(=O)[C@H](CCCCN)NC(=O)[C@H](CC(C)C)NC(=O)[C@H](CCCCNC(=O)[C@H](CC(C)C)NC(=O)[C@H](CCCCN)NC(=O)[C@H](CCCCNC(=O)[C@H](CC(C)C)NC(=O)[C@@H](N)CCCCN)NC(=O)[C@H](CC(C)C)NC(=O)[C@@H](N)CCCCN)NC(=O)[C@H](CC(C)C)NC(=O)[C@H](CCCCN)NC(=O)[C@H](CCCCNC(=O)[C@H](CC(C)C)NC(=O)[C@@H](N)CCCCN)NC(=O)[C@H](CC(C)C)NC(=O)[C@@H](N)CCCCN)C(=O)NCCCC[C@H](NC(=O)[C@H](CC(C)C)NC(=O)[C@H](CCCCN)NC(=O)[C@H](CC(C)C)NC(=O)[C@H](CCCCNC(=O)[C@H](CC(C)C)NC(=O)[C@H](CCCCN)NC(=O)[C@H](CCCCNC(=O)[C@H](CC(C)C)NC(=O)[C@@H](N)CCCCN)NC(=O)[C@H](CC(C)C)NC(=O)[C@@H](N)CCCCN)NC(=O)[C@H](CC(C)C)NC(=O)[C@H](CCCCN)NC(=O)[C@H](CCCCNC(=O)[C@H](CC(C)C)NC(=O)[C@@H](N)CCCCN)NC(=O)[C@H](CC(C)C)NC(=O)[C@@H](N)CCCCN)C(=O)N[C@@H](CCCCN)C(=O)N[C@@H](CC(C)C)C(=O)N[C@@H](CCCCN)C(N)=O [YGO-010, (KL)8(KKL)4(KLKL)2(KKLK)] (I: H-KLK([Leu-Lys])KLKLKLKKLK-NH2 / II: H-KLK([Leu-Lys])KLKLKL / III: H-KLK([Leu-Lys])KL / IV: H-KLK([Leu-Lys])KL; amide I:6-IV:C, I:10-II:C, II:6-III:C) | 3 (≈ 0.614 µM)
CC(C)C[C@H](NC(=O)[C@H](CCCCN)NC(=O)[C@H](CC(C)C)NC(=O)[C@H](CCCCNC(=O)[C@H](CC(C)C)NC(=O)[C@H](CCCCN)NC(=O)[C@H](CC(C)C)NC(=O)[C@H](CCCCNC(=O)[C@H](CC(C)C)NC(=O)[C@H](CCCCN)NC(=O)[C@H](CCCCNC(=O)[C@H](CC(C)C)NC(=O)[C@@H](N)CCCCN)NC(=O)[C@H](CC(C)C)NC(=O)[C@@H](N)CCCCN)NC(=O)[C@H](CC(C)C)NC(=O)[C@H](CCCCN)NC(=O)[C@H](CCCCNC(=O)[C@H](CC(C)C)NC(=O)[C@@H](N)CCCCN)NC(=O)[C@H](CC(C)C)NC(=O)[C@@H](N)CCCCN)NC(=O)[C@H](CC(C)C)NC(=O)[C@H](CCCCN)NC(=O)[C@H](CC(C)C)NC(=O)[C@H](CCCCNC(=O)[C@H](CC(C)C)NC(=O)[C@H](CCCCN)NC(=O)[C@H](CCCCNC(=O)[C@H](CC(C)C)NC(=O)[C@@H](N)CCCCN)NC(=O)[C@H](CC(C)C)NC(=O)[C@@H](N)CCCCN)NC(=O)[C@H](CC(C)C)NC(=O)[C@H](CCCCN)NC(=O)[C@H](CCCCNC(=O)[C@H](CC(C)C)NC(=O)[C@@H](N)CCCCN)NC(=O)[C@H](CC(C)C)NC(=O)[C@@H](N)CCCCN)C(N)=O [YGO-011, (KL)8(KKL)4(KLKL)2(KLKL)] (I: H-KLK([Leu-Lys])KLKLKLKLKL-NH2 / II: H-KLK([Leu-Lys])KLKLKL / III: H-KLK([Leu-Lys])KL / IV: H-KLK([Leu-Lys])KL; amide I:6-IV:C, I:10-II:C, II:6-III:C) | 3 (≈ 0.616 µM)
CC(C)C[C@H](NC(=O)[C@H](CCCNC(=N)N)NC(=O)[C@H](CCCCNC(=O)[C@H](CC(C)C)NC(=O)[C@H](CCCNC(=N)N)NC(=O)[C@H](CCCCNC(=O)[C@H](CC(C)C)NC(=O)[C@H](CCCNC(=N)N)NC(=O)CSC[C@H](NC(=O)[C@H](CC(C)C)NC(=O)[C@H](CCCNC(=N)N)NC(=O)[C@H](CCCCNC(=O)[C@H](CC(C)C)NC(=O)[C@@H](N)CCCNC(=N)N)NC(=O)[C@H](CC(C)C)NC(=O)[C@@H](N)CCCNC(=N)N)C(N)=O)NC(=O)[C@H](CC(C)C)NC(=O)[C@H](CCCNC(=N)N)NC(=O)CSC[C@H](NC(=O)[C@H](CC(C)C)NC(=O)[C@H](CCCNC(=N)N)NC(=O)[C@H](CCCCNC(=O)[C@H](CC(C)C)NC(=O)[C@@H](N)CCCNC(=N)N)NC(=O)[C@H](CC(C)C)NC(=O)[C@@H](N)CCCNC(=N)N)C(N)=O)NC(=O)[C@H](CC(C)C)NC(=O)[C@H](CCCNC(=N)N)NC(=O)[C@H](CCCCNC(=O)[C@H](CC(C)C)NC(=O)[C@H](CCCNC(=N)N)NC(=O)CSC[C@H](NC(=O)[C@H](CC(C)C)NC(=O)[C@H](CCCNC(=N)N)NC(=O)[C@H](CCCCNC(=O)[C@H](CC(C)C)NC(=O)[C@@H](N)CCCNC(=N)N)NC(=O)[C@H](CC(C)C)NC(=O)[C@@H](N)CCCNC(=N)N)C(N)=O)NC(=O)[C@H](CC(C)C)NC(=O)[C@H](CCCNC(=N)N)NC(=O)CSC[C@H](NC(=O)[C@H](CC(C)C)NC(=O)[C@H](CCCNC(=N)N)NC(=O)[C@H](CCCCNC(=O)[C@H](CC(C)C)NC(=O)[C@@H](N)CCCNC(=N)N)NC(=O)[C@H](CC(C)C)NC(=O)[C@@H](N)CCCNC(=N)N)C(N)=O)C(N)=O [CCS-27, (RL)8(KRLCxRL)4(KRL)2KRL] | 12 (≈ 1.8 µM)
CC(C)C[C@H](NC(=O)[C@H](CCCCN)NC(=O)[C@H](CNC(=O)[C@H](CC(C)C)NC(=O)[C@H](CCCCN)NC(=O)[C@H](CNC(=O)[C@H](CC(C)C)NC(=O)[C@@H](N)CCCCN)NC(=O)[C@H](CC(C)C)NC(=O)[C@@H](N)CCCCN)NC(=O)[C@H](CC(C)C)NC(=O)[C@H](CCCCN)NC(=O)[C@H](CNC(=O)[C@H](CC(C)C)NC(=O)[C@@H](N)CCCCN)NC(=O)[C@H](CC(C)C)NC(=O)[C@@H](N)CCCCN)C(N)=O [MSt-138, (KL)4(BKL)2(BKL)] (I: H-KL[Dap]([Leu-Lys])KL[Dap]KL-NH2 / II: H-KL[Dap]([Leu-Lys])KL; amide I:6-II:C) | 2 (≈ 1.02 µM)
CC(C)C[C@H](NC(=O)[C@H](CCN)NC(=O)[C@H](CCCCNC(=O)[C@H](CC(C)C)NC(=O)[C@H](CCN)NC(=O)[C@H](CCCCNC(=O)[C@H](CC(C)C)NC(=O)[C@@H](N)CCN)NC(=O)[C@H](CC(C)C)NC(=O)[C@@H](N)CCN)NC(=O)[C@H](CC(C)C)NC(=O)[C@H](CCN)NC(=O)[C@H](CCCCNC(=O)[C@H](CC(C)C)NC(=O)[C@@H](N)CCN)NC(=O)[C@H](CC(C)C)NC(=O)[C@@H](N)CCN)C(N)=O [MSt-201, (DabL)4(KDabL)2(KDabL)] (I: H-[Dab]LK([Leu-Dab])[Dab]LK[Dab]L-NH2 / II: H-[Dab]LK([Leu-Dab])[Dab]L; amide I:6-II:C; N-terminus assumed) | 5 (≈ 2.64 µM)
